Reference: US20070270436A1, “NOVEL AMINO- AND IMINO-ALKYLPIPERAZINES” (Recordati Ireland Limited, priority 2006, published 2007)

Key:
[1] = tested on: rhythmic bladder-voiding contractions; test: Rhythmic bladder-voiding contractions induced by bladder filling in anaesthetised rats; format: in vivo, rat; conditions: intravenous administration
Description: Female Sprague-Dawley rats weighing 225-275 g (Crl: CD® (SD) IGS BR, Charles River Italia) were used. The animals were housed with free access to food and water and maintained on a forced 12-hour alternating light-dark cycle at 22-24° C. for at least one week, except during the experiment. The activity on rhythmic bladder voiding contractions was evaluated according to the method of Dray (Dray J., Pharmacol. Methods, 13:157, 1985), with some modifications as in Guarneri (Guarneri, Pharmacol. Res. 27:173, 1993). Briefly, the rats were anaesthetised by subcutaneous injection of 1.25 g/kg (5 ml/kg) urethane, after which the urinary bladder was catheterised via the urethra using PE 50 polyethylene tubing filled with physiological saline. The catheter was tied in place with a ligature around the external urethral orifice and was connected to conventional pressure transducers (Statham P23 ID/P23 XL). […] The bladder was then filled via the recording catheter by incremental volumes of warm (37° C.) saline until reflex bladder-voiding contractions occurred (usually 0.8-1.5 ml). For intravenous injection of bioactive compounds, PE 50 polyethylene tubing filled with physiological saline was inserted into the jugular vein.
From the cystometrogram, the number of contractions recorded 15 minutes before (basal values) and after treatment, as well as the mean amplitude of these contractions (mean height of the peaks in mmHg), was evaluated.
Since most compounds produced an effect that was relatively rapid in onset and led to a complete cessation of bladder contractions, bioactivity was conveniently estimated by measuring the duration of bladder quiescence (i.e., the time during which no contractions occurred). The number of tested animals showing a reduction in the number of contractions higher than 30% of that observed in the basal period was recorded too.
The extrapolated doses which induced a reduction in the number of contractions greater than 30% in 50% of the treated rats (ED50) were also evaluated by the method of Bliss (Bliss C. I., Quart J. Pharm. Pharmacol. 11, 192-216, 1938).

urinary bladder = test: Cystometric parameters in conscious rats after oral administration; format: in vivo, rat; conditions: 3 mg/kg p.o., 1-5 h after treatment
Description: Male Sprague-Dawley rats [Crl: CD® (SD) IGS BR] of 300-400 g body weight supplied by Charles River Italia were used. The animals were housed with free access to food and water and maintained on a forced 12-hour-light/12-hour-dark cycle at 22-24° C. of temperature, except during the experiment. To quantify urodynamic parameters in conscious rats, cystometrographic studies were performed according to the procedure previously reported (Guarneri et al., Pharmacol. Res. 24: 175, 1991).
Briefly, the rats were anaesthetised by intraperitoneal administration of 3 ml/kg of Equithensin solution (pentobarbital 30 mg/kg and chloral hydrate 125 mg/kg) and placed in a supine position. An approximately 10 mm-long midline incision was made in the shaved and cleaned abdominal wall. The urinary bladder was gently freed from adhering tissues, emptied and then cannulated via an incision in the bladder body, using a polyethylene cannula (0.58-mm internal diameter, 0.96-mm external diameter) which was permanently sutured with silk thread. The cannula was exteriorised through a subcutaneous tunnel in the retroscapular area, where it was connected to a plastic adapter in order to avoid the risk of removal by the animal. For drug testing, the rats were utilised one day after implantation.
On the day of the experiment, the rats were placed in modified Bollman cages, i.e., restraining cages that were large enough to permit the rats to adopt a normal crouched posture, but narrow enough to prevent turning around. After a stabilisation period of about 20 minutes, the free tip of the bladder cannula was connected through a T-shaped tube to a pressure transducer (Statham P23XL) and to a peristaltic pump (Gilson minipuls 2) for continues infusion of a warm (37° C.) saline solution into the urinary bladder, at a constant rate of 0.1 ml/minute. The intraluminal-pressure signal during infusion of saline into the bladder was continuously recorded on a polygraph (Rectigraph-8K San-ei with BM614/2 amplifier from Biomedica Mangoni). The cystometrogram was used to evaluate the urodynamic parameters of bladder volume capacity (BVC) and micturition pressure (MP). BVC (ml) is defined as the volume of saline infused into the bladder necessary to induce detrusor contraction followed by micturition. MP (mmHg) is defined as the maximal intravesical pressure caused by contraction during micturition. Basal BVC and MP values were evaluated as mean of the values observed in the cystometrograms recorded in an initial period of 30-60 minutes. Following determination of basal BVC and MP, the infusion was interrupted and the test compounds were administered orally by a stomach tube. Bladder infusion was resumed and changes in BVC and MP were evaluated from the mean values obtained in the cystometrograms observed during 1, 2, 3, 4 and 5 hours after treatment. Compounds were administered in a volume of 2 ml/kg and groups of control animals received the same amount of vehicle (0.5% methocel in water) orally.
Data were expressed as mean ±standard error. The percent changes of BVC and MP versus the basal values, as well as Δ values (difference in ml or mmHg) of BVC and MP (BVC or MP at time “x” minus basal value), were also evaluated for each rat/time. In the figures, data were reported as % changes versus basal values.
Statistical analysis on BVC and MP values, as well as on Δ values, was performed by S.A.S./STAT software, version 6.12. The observed differences between vehicle (control) and test treatments were evaluated on Δ values of BVC and MP, whereas the differences between the values at different times versus basal values were analyzed on original BVC and MP data.

Row | Compound | ED50 (frequency) (extrapolated dose inducing a reduction of the number of contractions >30% in 50% of treated rats) [1] | ED10 min (extrapolated dose inducing 10 minutes of disappearance of the contractions) [1] | bladder volume capacity (BVC) (urinary bladder) | micturition pressure (MP) (urinary bladder)
1 | COc1ccccc1N1CCN(CCC(c2ccccc2F)C(C2CCCCC2)N(C)C(C)=O)CC1 (racemic) [Example 16, (RS,SR)- and (RS,RS)-N-{-1-Cyclohexyl-2-(2-fluorophenyl)-4-[4-(2-methoxyphenyl)piperazin-1-yl]butyl}-N-methylacetamide] | 0.031 mg/kg | 0.072 mg/kg | effective in increasing | without significant effects
2 | COc1ccccc1N1CCN(CC[C@@H](c2ccccc2F)[C@H](NC(=S)N(C)C)C2CCCCC2)CC1 (racemic) [Example 24, 3-{(RS,SR)-1-Cyclohexyl-2-(2-fluorophenyl)-4-[4-(2-methoxyphenyl)-piperazin-1-yl]butyl}-1,1-dimethylthiourea] | – | – | significantly increased | slight but significant reduction
